Laboratory results from the supplement of paper PMC10307832.

Legend:
Test in all cases: relative viability (nuclei count vs DMSO), 5 days (fraction); higher = more cells survive
[1] = compound: O=c1cc(-c2cccc3c2Sc2ccccc2S3)oc(N2CCOCC2)c1
Procedure, shortened: (§1)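 Hoechst staining, done together with fixation and permeabilisation, marked nuclei for 4× imaging and MetaXpress counting. This followed 5 days without medium change after lung cancer cell lines, kept overnight at 37 °C in 1536-well plates, were pinned with five library-drug doses (not always all listed) spaced by √10 on vehicle-anchored plates. Viability is the ratio of treated-well to vehicle-well nuclei, expressed as a median across plates. Plates passed only at control CV below 25% with at least one doubling.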

[2] = compound: CCN(CC)CCCCNc1ncc2cc(-c3cc(OC)cc(OC)c3)c(NC(=O)NC(C)(C)C)nc2n1
Procedure, shortened: as §1

PRIMA-1MET = compound: COCC1(CO)C(=O)C2CCN1CC2 [PRIMA-1MET]
Procedure, shortened: as §1

Zibotentan = compound: COc1nc(C)cnc1NS(=O)(=O)c1cccnc1-c1ccc(-c2nnco2)cc1 [Zibotentan]
Procedure, shortened: as §1

[3] = compound: C1COCCN1C2=CC(=O)C3=C(O2)C(=CC=C3)C4=CC=CC5=C4SC6=CC=CC=C56
Procedure, shortened: as §1

| Cell Line | relative viability ([1]; 0.08 µM) | relative viability ([1]; 0.253 µM) | relative viability ([1]; 0.8 µM) | relative viability ([1]; 2.53 µM) | relative viability ([1]; 8 µM) | relative viability ([2]; 0.01 µM) | relative viability ([2]; 0.03162 µM) | relative viability ([2]; 0.1 µM) | relative viability ([2]; 0.3162 µM) | relative viability ([2]; 1 µM) | relative viability (PRIMA-1MET; 0.2 µM) | relative viability (PRIMA-1MET; 2 µM) | relative viability (PRIMA-1MET; 6.325 µM) | relative viability (PRIMA-1MET; 20 µM) | relative viability (Zibotentan; 0.08 µM) | relative viability (Zibotentan; 0.253 µM) | relative viability (Zibotentan; 0.8 µM) | relative viability (Zibotentan; 2.53 µM) | relative viability ([3]; 0.01 µM) | relative viability ([3]; 0.03162 µM) | relative viability ([3]; 0.3162 µM) | relative viability ([3]; 1 µM) | relative viability (PRIMA-1MET; 0.6325 µM) | relative viability ([3]; 0.1 µM) |
| --- | --- | --- | --- | --- | --- | --- | --- | --- | --- | --- | --- | --- | --- | --- | --- | --- | --- | --- | --- | --- | --- | --- | --- | --- |
| NCI-H650 | 0.979 | 0.857 | 1.01 | 0.76 | 1.1 | 0.836 | 0.926 | 1.19 | 0.983 | 0.888 | 1.24 | 0.913 | 1.03 | 0.128 | 1.02 | 0.792 | 0.988 | 0.912 | 0.909 | 1.07 | 1.08 | 0.884 | – | – |
| CAL-12T | 0.94 | 1.06 | 0.952 | 0.955 | 0.883 | 0.901 | 1.03 | 1.04 | 1.04 | 0.974 | 0.946 | 1.02 | 0.934 | 0.352 | 0.965 | 0.918 | 0.942 | 1.03 | 0.924 | 0.991 | 1.05 | 0.854 | 0.924 | 1.03 |
| EBC-1 | 1.02 | 1.07 | 0.98 | 0.929 | 0.779 | 1.11 | 0.988 | 1.06 | 1.24 | 0.953 | 1.09 | 0.933 | 0.987 | 0.811 | 0.944 | 0.991 | 1.06 | 1.09 | 1.04 | 0.965 | 0.932 | 0.917 | 0.998 | 0.928 |
| NCI-H838 | 0.979 | 1.09 | 0.862 | 0.947 | 0.887 | 0.99 | 0.971 | 1.01 | 0.97 | 0.643 | 1.05 | 0.841 | 1.08 | 0.659 | 0.962 | 0.87 | 0.987 | 0.998 | 1.04 | 0.966 | 0.99 | 0.893 | 0.946 | 0.98 |
| NCI-H2405 | 0.958 | 0.998 | 0.979 | 0.878 | 1.14 | 0.988 | 1.03 | 1.13 | 1.08 | 0.982 | 0.881 | – | 0.952 | 0.509 | 1.06 | 0.942 | 1.03 | 1.09 | 1.03 | 0.906 | 1.1 | 0.958 | 0.972 | 1.03 |
| LU99A | 0.901 | 0.935 | 1.01 | 1.02 | 0.997 | 0.888 | 0.972 | 0.997 | 1.01 | 0.899 | 0.939 | 0.822 | 0.935 | 0.508 | 1.06 | 0.912 | 0.938 | 0.89 | 0.957 | 1.03 | 0.888 | 0.997 | 0.852 | 1.02 |
| NCI-H2126 | 0.986 | 1.03 | 0.862 | 0.932 | 1.03 | 1.02 | 0.992 | 1.06 | 1.07 | 0.983 | 1.03 | 0.901 | 1.03 | 0.978 | 1.01 | 0.965 | 0.913 | 1.05 | 0.972 | 1 | 1.01 | 0.98 | 0.978 | 1 |
| ChaGo-K-1 | 0.975 | 0.953 | 1.03 | 0.935 | 1.08 | 1.02 | 0.967 | 1.11 | 1.02 | 0.941 | 0.994 | 0.98 | 1 | 0.884 | 1.04 | 0.983 | 0.743 | 0.943 | 1.03 | 0.956 | 1.04 | 0.954 | 0.814 | 0.95 |
| NCI-H1648 | 0.742 | 1.16 | 0.792 | 0.591 | 0.921 | 1.02 | 1.16 | 0.927 | 0.656 | 0.544 | 0.852 | 1.07 | 0.722 | 0.75 | 1.04 | 0.786 | 0.84 | 0.932 | 0.861 | 1.03 | 0.932 | 0.959 | 0.715 | 1.14 |
| 201T | 0.952 | 0.971 | 0.844 | 0.944 | 1.03 | 0.976 | 0.972 | 1.01 | 0.954 | 0.898 | 1.07 | 0.758 | 1.01 | 0.987 | 1.01 | 0.968 | 0.986 | 0.978 | 0.988 | 0.989 | 0.954 | 0.953 | 0.93 | 1.01 |
| UMC-11 | 0.998 | 1.18 | 1.09 | 0.916 | 1.25 | 1.03 | 0.915 | 1.01 | 1.01 | 0.98 | 1.05 | 0.848 | 0.97 | 0.944 | 1.01 | 1.01 | 0.951 | 0.978 | 0.986 | 0.952 | 1.02 | 0.989 | 0.887 | 0.982 |
| A-427 | 0.958 | 1.03 | 1.09 | 0.814 | 1.06 | 1.01 | 0.896 | 1.07 | 1.12 | 0.844 | 1.01 | 0.831 | 1.02 | 0.855 | 1.08 | 0.972 | 0.942 | 1.01 | 0.967 | 1.05 | 0.979 | 1 | 0.836 | 0.923 |
| H3255 | 0.929 | 0.917 | 0.994 | 0.994 | 1.19 | 0.999 | 0.938 | 1.07 | 1.12 | 0.978 | 0.992 | 0.938 | 0.989 | 0.952 | 0.981 | 1.03 | 1.06 | 0.938 | 0.926 | 0.96 | 1.05 | 0.812 | 0.89 | 0.95 |
